Laboratory results: US8815872B2, “Macrocyclics pyrimidines as aurora kinase inhibitors” (Merck Patent GmbH, priority 2008, dated 2014)

Experiments:
Aurora A = target: T1, Aurora A (Homo sapiens, UniProt O14965); assay: Aurora A enzyme assay (Caliper LC3000 mobility shift); type: biochemical
T1 construct: N-terminal GST fusion with full length Aurora A (1-403 amino acids); purchased Carna Biosciences 05-101
T1 sequence (O14965 1-403): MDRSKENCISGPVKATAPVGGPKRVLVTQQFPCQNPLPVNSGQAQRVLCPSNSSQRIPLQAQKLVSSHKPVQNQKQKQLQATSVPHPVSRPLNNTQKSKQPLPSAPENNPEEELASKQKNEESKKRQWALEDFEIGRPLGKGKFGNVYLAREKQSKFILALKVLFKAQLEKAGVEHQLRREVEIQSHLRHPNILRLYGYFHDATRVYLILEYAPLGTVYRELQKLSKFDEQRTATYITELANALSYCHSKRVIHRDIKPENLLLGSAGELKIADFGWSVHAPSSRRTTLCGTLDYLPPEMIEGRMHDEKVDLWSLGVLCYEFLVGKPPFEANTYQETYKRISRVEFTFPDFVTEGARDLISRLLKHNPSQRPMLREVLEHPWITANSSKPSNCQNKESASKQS
Description: (§1) The Aurora and other kinase assays described here were performed on two Caliper Life Sciences systems, the LC3000 and the Desktop Profiler. These provide data on enzyme activity via measurement of the relative amounts of phosphorylated or unphosphorylated fluorescently labelled substrate peptide at the end of an enzymatic reaction. These different states of peptide are resolved by applying a potential difference across the sample. The presence of a charged phosphate group on the product (as opposed to the substrate) causes a different peptide mobility between the two peptides. This is visualized by excitation of a fluorescent label on the substrate and product peptides and represented as peaks within the analysis software.
For example, in order to measure inhibitor activity of Aurora A inhibitors in the Caliper Life Sciences LC3000, a TTP Mosquito liquid handling instrument was used to place […] of an appropriate concentration of inhibitor in 100% DMSO (for a dose response curve calculation) into each well of a 384-well plate. To this reaction components were added to a final volume of 25 μl: • 0.067 ng/μl GST-Aurora A (Carna Biosciences 05-101. N-terminal GST fusion with full length Aurora A (1-403 amino acids), accession number NP_940835.1). • 15 μM ATP (Fluka, 02055) • 1 mM DTT (Sigma, D0632) • 1 mM MgC12 (Sigma, M1028) • 1 μM substrate peptide (sequence FITC-LRRASLG-(CONH2), synthesized by Tufts Peptide Synthesis service. • 100 mM HEPES pH 7.5 (Calbiochem, 391338) • 0.015% Brij-35 (Sigma, B4184)
The reaction was incubated for 90 min at 25° C., and then stopped by the addition of 70 μl of Stop buffer (100 mM HEPES pH 7.5, 0.015% Brij-35, 10 mM EDTA (Sigma, E7889)).
The plate was read on a Caliper LC 3000 in an Off-Chip mobility shift assay format, using the following parameters for a 12-sipper chip: screening pressure −1.8 psi, upstream voltage −2700, downstream voltage −1000. These conditions cause unphosphorylated substrate and phosphorylated product peptide to resolve as separate peaks allowing direct measurement of percentage of conversion of substrate to product. The percent conversion was plotted against concentration of inhibitor to produce a sigmoidal dose response curve, from which an IC50 was calculated using XLFit for Microsoft Excel.

A549 = assay: Cellular activity A549; type: cell-based; conditions: Homo sapiens
Description: (§2) The susceptibility of a particular cell to treatment with the compounds according to the invention was determined by in vitro tests. Typically, a culture of the cell was combined with a compound according to the invention at various concentrations for a period of time that was sufficient to allow the active agents to induce cell death or to inhibit migration, usually between about one hour and one week. In vitro testing was carried out using cultivated cells from a biopsy sample. The viable cells remaining after the treatment then were counted.

MiaPaca2 = assay: Cellular activity MiaPaca2; type: cell-based; conditions: Homo sapiens, MIA PaCa-2
Description: as §2

Aurora B = Aurora B (Homo sapiens, UniProt Q96GD4); assay: Aurora B enzyme assay (Caliper); type: biochemical
Description: as §1

Sequence of Aurora B (Q96GD4 whole entry): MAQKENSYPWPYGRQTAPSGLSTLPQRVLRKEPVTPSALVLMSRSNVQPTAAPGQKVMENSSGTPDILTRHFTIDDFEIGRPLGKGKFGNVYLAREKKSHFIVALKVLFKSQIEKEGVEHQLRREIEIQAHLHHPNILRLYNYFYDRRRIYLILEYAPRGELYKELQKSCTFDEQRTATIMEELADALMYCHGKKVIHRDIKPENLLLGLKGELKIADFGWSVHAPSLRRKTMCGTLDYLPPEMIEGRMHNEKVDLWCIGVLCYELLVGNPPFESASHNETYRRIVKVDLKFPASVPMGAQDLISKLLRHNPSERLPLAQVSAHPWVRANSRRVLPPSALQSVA

Row | SMILES | IC50 (Aurora A) [nM] | IC50 (A549) [nM] | IC50 (MiaPaca2) [nM] | IC50 (Aurora B) [nM]
1 | NC(=O)[C@H]1C([C@@H](O)CO)CC2[C@H]1Nc1nc(ncc1F)Nc1cccc(c1)OC[C@H](O)[C@H]2O (stereo partly shown) | 1000 to 6250 |  |  | 
2 | CN1CCN(c2ccc3cc2OCCN[C@@H]2C[C@@H]4C[C@H]2[C@@H](Nc2nc(ncc2F)N3)[C@H]4C(N)=O)CC1 | 101 to 1000 | 101 to 1000 | 101 to 1000 | 1 to 100
3 | NC(=O)[C@H]1[C@H]2C[C@H]3[C@H]1Nc1nc(ncc1F)Nc1cc(ccc1O)C(=O)CS[C@@H]3C2 | 1000 to 6250 |  |  | 1000 to 6250
4 | Nc1ccc(/C=C/NC(=O)[C@H]2[C@H]3C[C@H]4[C@H]2Nc2nc(ncc2F)Nc2cccc(c2)C(=O)CS[C@@H]4C3)cc1 | 101 to 1000 | > 6250 | > 6250 | 101 to 1000
5 | Fc1cnc2nc1N[C@@H]1CCC[C@H](C1)OCCCCOc1cccc(c1)N2 | 101 to 1000 |  |  | 
6 | CN1CCN(c2ccc3cc2C(=O)CS[C@@H]2C[C@@H]4C[C@H]2[C@@H](Nc2nc(ncc2F)N3)[C@H]4C(N)=O)CC1 | 1 to 100 | 1000 to 6250 | 1000 to 6250 | 
7 | NC(=O)[C@H]1[C@H]2C[C@H]3[C@H]1Nc1nc(ncc1F)Nc1ccc(F)c(c1)CC(=O)O[C@@H]3C2 | 1000 to 6250 |  |  | 1000 to 6250
8 | O[C@@H]1COC2CCCC(C2)Nc2nc(ncc2F)Nc2cccc(c2)OC[C@@H]1O (stereo partly shown) | 101 to 1000 |  |  | 
9 | CN1CCN(c2ccc3cc2NC(=O)CN[C@@H]2C[C@@H]4C[C@H]2[C@@H](Nc2nc(ncc2F)N3)[C@H]4C(N)=O)CC1 | 1 to 100 | 1000 to 6250 | 1000 to 6250 | 1 to 100
10 | CN1CCN(c2ccc3cc2OCCN(C)[C@@H]2C[C@@H]4C[C@H]2[C@@H](Nc2nc(ncc2F)N3)[C@H]4C(N)=O)CC1 | 1 to 100 |  |  | 1 to 100
11 | NC(=O)[C@H]1[C@H]2C[C@H]3[C@H]1Nc1nc(ncc1F)Nc1cccc(c1)CSS[C@@H]3C2 [drawing 213] | 1 to 100 | 1000 to 6250 | 1000 to 6250 | 1 to 100
12 | CN1CCN(c2ccc3cc2C(=O)CS(=O)(=O)[C@@H]2C[C@@H]4C[C@H]2[C@@H](Nc2nc(ncc2F)N3)[C@H]4C(N)=O)CC1 | 1 to 100 |  |  | 1000 to 6250
13 | Fc1cnc2nc1NC1CCCC(C1)OC/C=C\COc1cccc(c1)N2 (stereo not shown) | 101 to 1000 |  |  | 101 to 1000

Other lines, results leading:

Row | IC50 (Aurora A) [nM] | IC50 (A549) [nM] | IC50 (MiaPaca2) [nM] | IC50 (Aurora B) [nM] | SMILES
14 | 101 to 1000 |  |  |  | NC(=O)[C@H]1[C@H]2C[C@H]3[C@H]1Nc1nc(ncc1F)Nc1cccc(c1)/C=C\S[C@@H]3C2
15 | 1000 to 6250 |  |  | 101 to 1000 | NC(=O)[C@H]1[C@H]2C[C@H]3[C@H]1Nc1nc(ncc1F)Nc1cccc(c1)NC(=O)CN[C@@H]3C2
16 | 1 to 100 | 1000 to 6250 | 1000 to 6250 |  | NC(=O)[C@H]1[C@H]2C[C@H]3[C@H]1Nc1nc(ncc1F)Nc1cccc(c1)COCc1cn(nn1)[C@@H]3C2
17 | 1 to 100 | 1000 to 6250 | 1000 to 6250 | 1 to 100 | NC(=O)[C@H]1[C@H]2C[C@H]3[C@H]1Nc1nc(ncc1F)Nc1cccc(c1)OCCCS[C@@H]3C2
18 | 101 to 1000 |  |  |  | NC(=O)[C@H]1[C@H]2C[C@H]3[C@H]1Nc1nc(ncc1F)Nc1cccc(c1)S(=O)(=O)NC(=O)N[C@@H]3C2
19 | 1 to 100 | 1000 to 6250 | 1000 to 6250 | 1 to 100 | NC(=O)[C@H]1[C@H]2C[C@H]3[C@H]1Nc1nc(ncc1F)Nc1ccc(F)c(c1)CC(=O)N[C@@H]3C2
20 | 101 to 1000 | 1000 to 6250 | 1000 to 6250 | 101 to 1000 | NC(=O)[C@H]1[C@H]2C[C@H]3[C@H]1Nc1nc(ncc1F)Nc1cccc(c1)CCC(=O)N[C@@H]3C2
21 | 1 to 100 | 101 to 1000 | 101 to 1000 |  | NC(=O)[C@H]1[C@H]2C[C@H]3[C@H]1Nc1nc(ncc1F)Nc1cccc(c1)C(O)CS[C@@H]3C2 (stereo partly shown)
22 | 1 to 100 | 1000 to 6250 | 1000 to 6250 | 1 to 100 | NC(=O)[C@H]1[C@@H]2C[C@H]3CNS(=O)(=O)c4cccc(c4)Nc4ncc(F)c(n4)N[C@@H]1[C@@H]3C2
